Columns and labels:
Assay type in all cases: in vivo, human
[1] = system: Subjects Having Insomnia Disorder; assay: Example 1: subjective wake after sleep onset (sWASO), Sleep Diary
Description: As used herein, the term “subjective wake after sleep onset”, abbreviated as “sWASO”, means the sum of estimated minutes of wake during the night after initial sleep onset until the time the subject stopped trying to sleep for the night, operationalized as the time the subject got out of bed for the day. In some embodiments, sWASO is derived from data entered in a subject's Sleep Diary. As used herein, an “improvement of sWASO” means a reduction in sWASO.
In some embodiments, sleep diaries were used to assess sleep parameters reported by subjects (i.e., subjective assessments) including subjective sleep onset latency (sSOL), subjective sleep efficiency (sSE), subjective WASO (sWASO), and subjective total sleep time (sTST). Subjects were instructed to complete the Sleep Diary developed based on the consensus Sleep Diary as described in Carney et al., “The consensus sleep diary: standardizing prospective sleep self-monitoring,” Sleep 2012; 35(2):287-302. In some embodiments, the Sleep Diary was used to assess the subject's global perception of quality of sleep on the previous night with the following question: “How would you rate the quality of your sleep last night?” Subjects rated the quality of their sleep on a scale from 1 to 9, with 1 being extremely poor and 9 being extremely good. In some embodiments, the Sleep Diary was used to assess subjective ratings of morning sleepiness with the following question: “How alert/sleepy do you feel this morning?” Subjects rated their sleepiness/alertness level on a Likert scale from 1 to 9, with 1 being extremely sleepy and 9 being extremely alert.
sWASO—subjective wake after sleep onset: sum of estimated minutes of wake during the night after initial sleep onset until the time the subject stopped trying to sleep for the night, operationalized as the time the subject got out of bed for the day.
Subjects were randomized in a double-blind manner and received either placebo, 5 mg of lemborexant, or 10 mg of lemborexant (approximately 1:1:1 randomization). All subjects underwent routine safety monitoring through the study, including assessments of treatment-emergent adverse events, 12-lead electrocardiograms, vital signs, weight, and clinical hematology and blood chemistry labs. Suicidality was assessed using the eC-SSRS.
Treatment period 1 began with the first dose of randomized study medication (placebo, 5 mg of lemborexant, or 10 mg of lemborexant). Subjects completed sleep diaries daily in the morning, within one hour of waketime. The subjects were assessed by a clinician one month, two months, three months, and six months after initiation of Treatment period 1. The following assessments were conducted:
This study had two key secondary endpoints. The first key secondary endpoint was the mean change from study baseline in subjective sleep efficiency at month 6. The second key secondary endpoint was the mean change from study baseline of subjective wake after sleep onset at month 6.

[2] = Example 2: plasma concentrations of lemborexant and metabolites
Description: Within 5 minutes of the subject's mean habitual bedtime, study drug was administered and an overnight polysomnogram recording was initiated. At completion of the recording the following morning (Day 2), postural stability and cognitive performance were assessed. On the Day 2 evening, subjects returned to the clinic and a blood sample was collected before administering study drug, and then study drug was administered within 5 minutes of the subject's mean habitual bedtime. Again, a polysomnogram recording was initiated. The next morning (Day 3), postural stability and cognitive performance were assessed. A blood sample was also collected.
On the evening of Day 30, subjects returned to the clinic. A pre-dose blood sample was collected and study drug was again administered within 5 minutes of the subject's mean habitual bedtime. A polysomnogram recording was initiated. The following morning (Day 31), postural stability and cognitive performance were assessed and a blood sample was obtained. The ISI, FSS, EQ-5D-3L and PGI-Insomnia were administered. Blood and urine samples were collected for routine safety assessment. An electrocardiogram was performed, and vital signs and weight were assessed. The eC-SSRS was then administered to the subject. At 1.5 hours after waketime, subjects rated their morning sleepiness level.

[3] = system: Subjects Having Insomnia Disorder; assay: Example 3: proportion of subjects whose ISI Total Score decreased and was <10 (pooled); conditions: for percentage of subjects whose ISI Total Score decreased at month 1 and was less than 10: end of month 1, pooled Examples 1 and 2; for Responder No: subjects whose Insomnia Severity Index Total Score decreased from Baseline to Month 1 and was <10 / Responder Yes: subjects whose Insomnia Severity Index Total Score decreased from Baseline to Month 1 and was <10: Full Analysis Set, Examples 1 and 2; for Responder No: subjects whose Insomnia Severity Index Total Score decreased from Baseline to Month 1 and was <10 / Responder Yes: subjects whose Insomnia Severity Index Total Score decreased from Baseline to Month 1 and was <10 / Difference of proportion of responders vs. Placebo: Month 1; for Difference of proportion of responders vs. Placebo: ISI Total Score decreased and <10
Description: The data collected in studies described in Example 1 and Example 2 were pooled and the response of each subject was analyzed.
Table 32 provides the summary and analysis of responders, defined as those subjects whose Total ISI Score decreased at the end of month 1 by 7 or more points compared to baseline. Table 33 provides the summary and analysis of responders, defined as those subjects whose ISI Total Score decreased compared to baseline and was less than 10 at month 1.

[4] = Lemborexant 5 mg dose, Day 2 Post-Dose
[5] = Lemborexant 5 mg dose, Day 2 Pre-Dose
[6] = Lemborexant 5 mg dose, Day 29 Post-Dose
[7] = Lemborexant 5 mg dose, Day 29 Pre-Dose
[8] = Lemborexant 10 mg dose, Day 2 Post-Dose
[9] = Lemborexant 10 mg dose, Day 2 Pre-Dose
[10] = Lemborexant 10 mg dose, Day 29 Post-Dose
[11] = Lemborexant 10 mg dose, Day 29 Pre-Dose

Cc1ncc(OC[C@@]2(c3cccc(F)c3)C[C@H]2C(=O)Nc2ccc(F)cn2)c(C)n1 [Lemborexant, (1R,2S)-2-(((2,4-dimethylpyrimidin-5-yl)oxy)methyl)-2-(3-fluorophenyl)-N-(5-fluoropyridin-2-yl)cyclopropanecarboxamide]
subjective wake after sleep onset compared with placebo ([1]; 5 mg and 10 mg, at the equivalent timepoint (Table 4)): greater reduction in mean subjective wake after sleep onset than subjects treated with placebo | sWASO, Mean ([1]; 5 mg, First 7 Nights): 113.53 min | sWASO, Median ([1]; 5 mg, First 7 Nights): 87.86 min | sWASO, Mean ([1]; 5 mg, Month 1): 107.07 min | sWASO, Median ([1]; 5 mg, Month 1): 85.29 min | sWASO, Mean ([1]; 5 mg, Month 3): 89.48 min | sWASO, Median ([1]; 5 mg, Month 3): 66.43 min | sWASO, Mean ([1]; 5 mg, Month 6): 81.79 min | sWASO, Median ([1]; 5 mg, Month 6): 60.00 min | sWASO, Mean ([1]; 5 mg, Study Baseline): 132.77 min | sWASO, Median ([1]; 5 mg, Study Baseline): 114.71 min | sWASO Change from Study Baseline, Mean ([1]; 5 mg, after 1 Month): -23.42 min | sWASO Change from Study Baseline, Median ([1]; 5 mg, after 1 Month): -19.29 min | sWASO Change from Study Baseline, Mean ([1]; 5 mg, after 3 Months): -42.98 min | sWASO Change from Study Baseline, Median ([1]; 5 mg, after 3 Months): -34.57 min | sWASO Change from Study Baseline, Mean ([1]; 5 mg, after 6 Months): -51.45 min | sWASO Change from Study Baseline, Median ([1]; 5 mg, after 6 Months): -44.02 min | sWASO Change from Study Baseline, Mean ([1]; 5 mg, after 7 Nights): -20.21 min | sWASO Change from Study Baseline, Median ([1]; 5 mg, after 7 Nights): -16.01 min | sWASO LSM treatment difference: Lemborexant/Placebo ([1]; 5 mg, change from Study Baseline after 1 Month): -5.514 min | sWASO LSM treatment difference: Lemborexant/Placebo ([1]; 5 mg, change from Study Baseline after 3 Months): -13.424 min | sWASO LSM treatment difference: Lemborexant/Placebo ([1]; 5 mg, change from Study Baseline after 6 Months): -17.474 min | sWASO LSM treatment difference: Lemborexant/Placebo ([1]; 5 mg, change from Study Baseline after 7 Nights): -14.328 min | sWASO, Mean ([1]; 10 mg, First 7 Nights): 113.77 min | sWASO, Median ([1]; 10 mg, First 7 Nights): 92.29 min | sWASO, Mean ([1]; 10 mg, Month 1): 109.42 min | sWASO, Median ([1]; 10 mg, Month 1): 95.00 min | sWASO, Mean ([1]; 10 mg, Month 3): 95.66 min | sWASO, Median ([1]; 10 mg, Month 3): 70.00 min | sWASO, Mean ([1]; 10 mg, Month 6): 86.38 min | sWASO, Median ([1]; 10 mg, Month 6): 62.14 min | sWASO, Mean ([1]; 10 mg, Study Baseline): 136.83 min | sWASO, Median ([1]; 10 mg, Study Baseline): 120.57 min | sWASO Change from Study Baseline, Mean ([1]; 10 mg, after 1 Month): -26.82 min | sWASO Change from Study Baseline, Median ([1]; 10 mg, after 1 Month): -22.29 min | sWASO Change from Study Baseline, Mean ([1]; 10 mg, after 3 Months): -39.42 min | sWASO Change from Study Baseline, Median ([1]; 10 mg, after 3 Months): -36.07 min | sWASO Change from Study Baseline, Mean ([1]; 10 mg, after 6 Months): -48.12 min | sWASO Change from Study Baseline, Median ([1]; 10 mg, after 6 Months): -47.43 min | sWASO Change from Study Baseline, Mean ([1]; 10 mg, after 7 Nights): -23.30 min | sWASO Change from Study Baseline, Median ([1]; 10 mg, after 7 Nights): -20.71 min | sWASO LSM treatment difference: Lemborexant/Placebo ([1]; 10 mg, change from Study Baseline after 1 Month): -7.005 min | sWASO LSM treatment difference: Lemborexant/Placebo ([1]; 10 mg, change from Study Baseline after 3 Months): -10.079 min | sWASO LSM treatment difference: Lemborexant/Placebo ([1]; 10 mg, change from Study Baseline after 6 Months): -12.671 min | sWASO LSM treatment difference: Lemborexant/Placebo ([1]; 10 mg, change from Study Baseline after 7 Nights): -16.720 min | Plasma Concentrations, BLQ (<0.0500 ng/mL), n (%) [2, 4]: 6 (2.3) n (%) | Plasma Concentrations, Mean (SD) [2, 4]: 5.3 (2.55) ng/mL | Plasma Concentrations, Median [2, 4]: 5.0 ng/mL | Plasma Concentrations, BLQ (<0.0500 ng/mL), n (%) [2, 5]: 10 (3.9) n (%) | Plasma Concentrations, Mean (SD) [2, 5]: 2.1 (1.48) ng/mL | Plasma Concentrations, Median [2, 5]: 1.8 ng/mL | Plasma Concentrations, BLQ (<0.0500 ng/mL), n (%) [2, 6]: 6 (2.4) n (%) | Plasma Concentrations, Mean (SD) [2, 6]: 10.7 (6.66) ng/mL | Plasma Concentrations, Median [2, 6]: 9.1 ng/mL | Plasma Concentrations, BLQ (<0.0500 ng/mL), n (%) [2, 7]: 8 (3.1) n (%) | Plasma Concentrations, Mean (SD) [2, 7]: 7.3 (5.60) ng/mL | Plasma Concentrations, Median [2, 7]: 6.1 ng/mL | Plasma Concentrations, BLQ (<0.0500 ng/mL), n (%) [2, 8]: 5 n (%) | Plasma Concentrations, Mean (SD) [2, 8]: 11.5 ng/mL | Plasma Concentrations, Median [2, 8]: 10.4 ng/mL | Plasma Concentrations, BLQ (<0.0500 ng/mL), n (%) [2, 9]: 15 n (%) | Plasma Concentrations, Mean (SD) [2, 9]: 4.4 ng/mL | Plasma Concentrations, Median [2, 9]: 3.7 ng/mL | Plasma Concentrations, BLQ (<0.0500 ng/mL), n (%) [2, 10]: 6 n (%) | Plasma Concentrations, Mean (SD) [2, 10]: 21.1 ng/mL | Plasma Concentrations, Median [2, 10]: 19.6 ng/mL | Plasma Concentrations, BLQ (<0.0500 ng/mL), n (%) [2, 11]: 6 n (%) | Plasma Concentrations, Mean (SD) [2, 11]: 15.1 ng/mL | Plasma Concentrations, Median [2, 11]: 13.7 ng/mL | percentage of subjects whose ISI Total Score decreased at month 1 and was less than 10 ([3]; 5 mg): 33.0% | percentage of subjects whose ISI Total Score decreased at month 1 and was less than 10 ([3]; 10 mg): 33.4% | Responder No: subjects whose Insomnia Severity Index Total Score decreased from Baseline to Month 1 and was <10 ([3]; Lemborexant 5 mg (N = 582)): 366 (62.9) n (%) | Responder Yes: subjects whose Insomnia Severity Index Total Score decreased from Baseline to Month 1 and was <10 ([3]; Lemborexant 5 mg (N = 582)): 192 (33.0) n (%) | Difference of proportion of responders vs. Placebo ([3]; Lemborexant 5 mg vs placebo): 12.44 | Responder No: subjects whose Insomnia Severity Index Total Score decreased from Baseline to Month 1 and was <10 ([3]; Lemborexant 10 mg (N = 584)): 345 (59.1) n (%) | Responder Yes: subjects whose Insomnia Severity Index Total Score decreased from Baseline to Month 1 and was <10 ([3]; Lemborexant 10 mg (N = 584)): 195 (33.4) n (%) | Difference of proportion of responders vs. Placebo ([3]; Lemborexant 10 mg vs placebo): 12.71 | difference of proportion of responders (ISI Total Score decreased and less than 10) versus placebo ([3]; both doses, month 1 (Table 33)): statistically significant

From US20220305012A1, “L[…] TREATING SLEEP ISSUES” (EISAI R&D MANAGEMENT CO., LTD., priority 2019, published 2022)
